# Like-named read-outs stand apart in the source and are kept apart here.
# How the values were obtained:
# [1] = Description: Absorption of nicotine from the oral cavity to the systemic circulation is dependent on the pH of the saliva, pH of the blood plasma and the pKa of nicotine, which is about 7.8. Assuming a pH of the saliva of 6.8, only about 10% of the nicotine will be in the free base form. Thus, in order to promote absorption of nicotine in a free base form, which is the form predominantly absorbed through the mucosa, the pH of the saliva must preferably be increased to at least pH 7 and to at most pH 10, more preferably to at least pH 8 and at most pH 9.5. At a pH of 8.8 about 90% of the nicotine will then be in the free base form.
# [2] = cited from earlier work
compound,measurement,setting,value
"CN1CCCC1c1cccnc1 (stereo not drawn) [nicotine, 3-(1-methyl-2-pyrrolidinyl)-pyridine]",nicotine in the free base form,[1]; pH 8.8,about 90%
same,nicotine in the free base form,[1]; saliva pH 6.8,about 10%
same,single dose able to kill an adult,[2],Approximately 40 milligrams
